“Also recorded” adds a separate entry of the source.
Tests used:
RafC (Raf-1 kinase) = details: literature (ref. 11); cited from earlier work
[1] = target: T1, Arabidopsis TGD4, DsRED-TGD4-His, full-length TGD4 1-479 (SEQ ID NO: 132) (Arabidopsis thaliana, UniProt Q9M903); assay: Protein-lipid overlay assay, DsRED-TGD4-His; type: binding; details: commercial phospholipid membrane, FIG. 18A
T1 sequence (Q9M903 1-479): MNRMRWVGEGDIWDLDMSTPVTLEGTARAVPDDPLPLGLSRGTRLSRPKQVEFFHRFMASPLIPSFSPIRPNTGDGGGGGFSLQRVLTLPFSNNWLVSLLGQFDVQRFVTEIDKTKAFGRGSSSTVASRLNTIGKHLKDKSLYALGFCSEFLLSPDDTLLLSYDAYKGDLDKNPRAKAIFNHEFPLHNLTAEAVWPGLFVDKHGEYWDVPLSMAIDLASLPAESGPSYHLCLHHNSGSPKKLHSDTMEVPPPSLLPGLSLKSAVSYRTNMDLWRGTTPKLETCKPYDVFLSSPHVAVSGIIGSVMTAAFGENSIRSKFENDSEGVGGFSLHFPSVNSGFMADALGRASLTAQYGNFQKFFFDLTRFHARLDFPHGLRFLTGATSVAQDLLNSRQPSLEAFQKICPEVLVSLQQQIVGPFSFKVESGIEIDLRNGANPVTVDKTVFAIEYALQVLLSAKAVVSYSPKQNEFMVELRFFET
Protocol: Protein-Lipid Overlay Assay:
The protein-lipid overlay assay was modified from (Awai et al., 2006, Lu and Benning, 2009). Phosphoinositol-4,5-bisphosphate PIP2) lipid strips were purchased from Echelon Biosciences (Salt Lake City, Utah). Lipids spotted onto membranes were purchased from Avanti Polar Lipids (Alabaster, Al.) as well as Larodan Fine Chemicals (Malmo, Sweden). Lipids (10 nmol) were suspended in 20 μl spotting buffer (250 μl chloroform, 500 μl methanol, 200 μl 50 mM HCl, 2 μl 1% (w/v) Ponseau S (Sigma, St. Louis, Mo.)) and spotted onto Amersham Hybond-C Extra membranes (GE Healthcare, Piscataway, N.J.) followed by drying for 1 hour in a fume hood. The lipid membranes were then blocked in 3% (w/v) bovine serum albumin (BSA) in TBST buffer (TBS with 0.25% (v/v) Tween 20) for 2 hours at room temperature. Purified DsRED-TGD4-His fusion proteins were added at 1 μg/ml final concentration and incubated overnight at 4° C. followed by washing 3 times in TBST. Lipid membranes were then incubated with 1:2000 diluted His antibody (Sigma) in blocking buffer for 2 hours at room temperature followed by 2 washes with TBST. The membranes were processed for immunoblotting as described below.

[2] = target: T2, Arabidopsis TGD2, DsRed-TGD2C minimal domain (DR-25, TGD2C T8, residues 201-225, SEQ ID NO:12) (Arabidopsis thaliana, UniProt Q9LTR2); assay: Liposome-association assay, minimal domain DR-25; type: binding
T2 sequence (Q9LTR2 201-225): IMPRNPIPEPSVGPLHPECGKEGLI
Protocol: The liposome association assay was performed as previously reported. (31). Briefly, lipids (dioleoyl-phosphatidylcholine, DOPC or dioleoyl-PA, DOPA) were incubated in TBS (50 mM Tris-HCl, pH 7; 0.1 M NaCl) at 37° C. for an hour followed by vigorous vortexing for 5 min. The liposomes were precipitated at 20,000 g and washed twice with ice-cold TBS.
Liposomes (200 μg) were mixed with purified DsRed-TGD2 fusion protein and TBS to make a final 100 μL solution. The mixture was incubated at 30° C. for 30 min and washed twice with ice-cold TBS by centrifugation at 20,000 g at 4° C. The liposome pellet mixed with sample buffer was analyzed by SDS-PAGE (28). Immuno-detection of the His-tagged protein was accomplished using the above mentioned Penta-His antibody at 1:15,000 and the anti mouse antibody at 1:75,000 dilution.
The protein band was visualized by chemiluminescent detection kit from Sigma. The autoradiography film was scanned, distinct protein bands were quantified using computer software Multi Gauge V3.0 (Fujifilm USA, Valhalla, N.Y.) and resulted data were plotted and analyzed by OriginPro8 (Origin lab corporation, Northampton, Mass.).

[3] = target: T3, Arabidopsis TGD2, DsRed-TGD2C T8 (residues 201-225, SEQ ID NO:12) (Arabidopsis thaliana, UniProt Q9LTR2); assay: Protein-lipid overlay assay, minimal domain; type: binding; details: FIG. 4B; compared to DR-WT
T3 sequence (Q9LTR2 201-225): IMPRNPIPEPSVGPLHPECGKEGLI
Protocol: Membrane lipid strips were purchased from Echelon Biosciences (Salt Lake City, Utah). The strips were first blocked with 3% bovine serum albumin in TBST (10 mM Tris-HCl, pH 8.0, 150 mM NaCl, and 0.25% Tween-20) for two hours and incubated in 0.5 μg/mL DsRed-TGD2 fusion protein solution in the blocking buffer at 4° C. overnight. The strips were washed 10 min for 3 times with TBST the next day and soaked in 3% bovine serum albumin in TBST with a Penta-His mouse monoclonal antibody (Sigma-Aldrich, St. Louis, Mo.) at 1:2,000 dilution at 4° C. overnight. The strips were washed twice with TBST and soaked in 3% bovine serum albumin in TBST with horseradish peroxidase-conjugated anti mouse antibody (Bio-Rad, Hercules, Calif.) at 1:20,000 dilution for an hour at room temperature. Following washing with TBST for 1 hour, the protein was detected by using the chemiluminescent detection system (Sigma-Aldrich).

CCCCCCCC/C=C\CCCCCCCC(=O)OC[C@H](COP(=O)(O)O)OC(=O)CCCCCCC/C=C\CCCCCCCC [PA, phosphatidic acid]
RafC-PA association (RafC (Raf-1 kinase)): 20 mol % PA | binding to lipids on membranes [1]: specifically bind | PA binding ([2]; PA liposomes, FIG. 4A): sufficient to mediate specific binding to PA | cooperativity of PA binding ([2]; mixed PA/PC liposomes, FIG. 5): loses positive cooperativity; also recorded: not cooperative | PA binding on membrane strip [3]: binds PA on the membrane strip, with apparent lower affinity

Source: US8629251B2, “Specific detection and quantification of phosphatidic acid using an Arabidopsis trigalactosyldiacylglycerol-4 (TGD4) protein” (Board of Trustees of Michigan State University, priority 2008, dated 2014)
